According to patent US9738604B2, “Ethynylbenzene derivatives” (Duke University, priority 2010, dated 2017):
Converted amounts (≈) assume the structure as drawn. Read-outs that look alike come from different tables or passages of the source.

Columns and labels:
Assay type in all cases: cell-based
[1] = test system: E. coli W3110; assay: microbe, parasite or virus in culture; conditions: for MIC: Escherichia coli, W3110, 22 h, read-out: MIC E. coli W3110
[2] = test system: E. coli W3110RL; assay: microbe, parasite or virus in culture; conditions: for MIC: Escherichia coli, W3110RL, 22 h, read-out: MIC E. coli W3110RL; for MIC E. coli W3110RL: E. coli with lpxC of R. leguminosarum, 22 hours at 37° C., MTT
[3] = test system: P. aeruginosa (PAO1); assay: MIC, P. aeruginosa; conditions: for MIC: Pseudomonas aeruginosa, read-out: MIC P. aeruginosa (PAO1)
[4] = test system: E. coli W3110PA; assay: microbe, parasite or virus in culture; conditions: for MIC: Escherichia coli, W3110PA, 22 h, read-out: MIC E. coli W3110PA; for MIC E. coli W3110PA: E. coli with lpxC of P. aeruginosa, 22 hours at 37° C., MTT
[5] = P. aeruginosa PAO1, 22 hours at 37° C., MTT

SMILES | MIC [1] [µg/mL] | MIC [2] [µg/mL] | MIC ([3]; PAO1, 22 h) [µg/mL] | MIC [4] [µg/mL] | MIC E. coli W3110 [1] | MIC E. coli W3110RL [2] | MIC P. aeruginosa (PAO1) [3, 5] | MIC E. coli W3110PA [4] | MIC [3, 5] [µg/mL] | MIC E. coli W3110 ([1]; wild-type E. coli W3110, 22 hours at 37° C., MTT)
Nc1ccc(C#CC#Cc2ccc(C(=O)N[C@H](C(=O)NO)[C@H](O)C(F)F)cc2)cc1 [CPD-056, 4-((4-aminophenyl)buta-1,3-diynyl)-N-((2S,3S)-4,4-difluoro-3-hydroxy-1-(hydroxyamino)-1-oxobutan-2-yl)benzamide] | < 1 | 1 to 10 (≈ 2.42 to 24.2 µM) | < 1 | < 1 | – | – | – | – | – | –
Nc1ccc(C#CC#Cc2ccc(C(=O)N[C@@H](Cc3c[nH]c4ccccc34)C(=O)NO)cc2)cc1 [CPD-029, (2S)-2-({4′-[4′-(4′-aminophenyl)buta-1′,3′-diyn-1′-yl]phenyl}formamido)-N-hydroxy-3-(1′H-indol-3′-yl)propanamide] | – | – | – | – | B (key: A: <1 μg/mL; B: 1-10 μg/mL; C: 11-50 μg/mL; D: 51-100 μg/mL; E: >100 μg/mL) | E (>100 μg/mL) | E (>100 μg/mL) | E (>100 μg/mL) | – | –
Nc1ccc(C#CC#Cc2ccc(C(=O)N[C@@H](CO)C(=O)NO)cc2)cc1 [CPD-027, (2S)-2-({4′-[4′-(4′-aminophenyl)buta-1′,3′-diyn-1′-yl]phenyl}formamido)-N,3-dihydroxypropanamide] | – | – | – | – | A (key: A: <1 μg/mL; B: 1-10 μg/mL; C: 11-50 μg/mL; D: 51-100 μg/mL; E: >100 μg/mL) | C (11-50 μg/mL) | B (1-10 μg/mL) | B (1-10 μg/mL) | – | –
Nc1ccc(C#CC#Cc2ccc(C(=O)N[C@@H](Cc3ccc(O)cc3)C(=O)NO)cc2)cc1 [CPD-033, (2S)-2-({4′-[4′-(4′-aminophenyl)buta-1′,3′-diyn-1′-yl]phenyl}formamido)-N-hydroxy-3′-(4′-hydroxyphenyl)propanamide] | – | – | – | – | B (key: A: <1 μg/mL; B: 1-10 μg/mL; C: 11-50 μg/mL; D: 51-100 μg/mL; E: >100 μg/mL) | E (>100 μg/mL) | C (11-50 μg/mL) | B (1-10 μg/mL) | – | –
Nc1cccc(C#CC#Cc2ccc(C(=O)N[C@@H](Cc3c[nH]cn3)C(=O)NO)cc2)c1 [CPD-015, (2S)-2-({4′-[4′-(3′-aminophenyl)buta-1′,3′-diyn-1′-yl]phenyl}formamido)-N-hydroxy-3-(1′H-imidazol-4′-yl)propanamide] | < 1 | > 100 | 1 to 10 (≈ 2.42 to 24.2 µM) | 51 to 100 (≈ 123 to 242 µM) | – | – | – | – | – | –
CC(C)C[C@H](NC(=O)c1ccc(C#CC#Cc2ccc(N)cc2)cc1)C(=O)NO [CPD-026, (2S)-2-({4′-[4′-(4′-aminophenyl)buta-1′,3′-diyn-1-yl]phenyl}formamido)-N-hydroxy-4-methylpentanamide] | – | – | – | – | B (key: A: <1 μg/mL; B: 1-10 μg/mL; C: 11-50 μg/mL; D: 51-100 μg/mL; E: >100 μg/mL) | E (>100 μg/mL) | E (>100 μg/mL) | E (>100 μg/mL) | – | –
C[C@@](N)(C(F)F)[C@H](NC(=O)c1ccc(C#Cc2ccc(CN3CCOCC3)cc2)cc1)C(=O)NO [CPD-080, N-((2S,3S)-3-amino-4,4-difluoro-1-(hydroxyamino)-3-methyl-1-oxobutan-2-yl)-4-((4-(morpholinomethyl)phenyl)ethynyl)benzamide] | < 1 | – | < 1 | – | – | – | – | – | – | –
O=C(NO)C(Cc1ccc2ccccc2c1)NS(=O)(=O)c1ccc2ccccc2c1 (centres unmarked) | 1 to 10 (≈ 2.38 to 23.8 µM) | > 100 | – | > 100 | – | – | – | – | > 100 | –
NCCCC[C@H](NC(=O)c1ccc(C#CC#Cc2ccc(N)cc2)cc1)C(=O)NO [CPD-032, (2S)-6-amino-2-({4′-[4′-(4′-aminophenyl)buta-1′,3′-diyn-1-yl]phenyl}formamido)-N-hydroxyhexanamide] | – | – | – | – | C (key: A: <1 μg/mL; B: 1-10 μg/mL; C: 11-50 μg/mL; D: 51-100 μg/mL; E: >100 μg/mL) | D (51-100 μg/mL) | C (11-50 μg/mL) | C (11-50 μg/mL) | – | –
Nc1ccc(C#CC#Cc2ccc(C(=O)NC3CCN(O)C3=O)cc2)cc1 (centres unmarked) [CPD-043, 4-((4-aminophenyl)buta-1,3-diynyl)-N-(1-hydroxy-2-oxopyrrolidin-3-yl)benzamide] | < 1 | 51 to 100 (≈ 142 to 278 µM) | 51 to 100 (≈ 142 to 278 µM) | 51 to 100 (≈ 142 to 278 µM) | – | – | – | – | – | –
Nc1ccc(C#CC#Cc2ccc(C(=O)N[C@@H](CCC(=O)O)C(=O)NO)cc2)cc1 [CPD-018, (4S)-4-({4′-[4′-(4′-aminophenyl)buta-1′,3′-diyn-1′-yl]phenyl}formamido)-4-(hydroxycarbamoyl)butanoic acid] | – | – | – | – | – | E (>100 μg/mL) | C (11-50 μg/mL) | D (51-100 μg/mL) | – | B (1-10 μg/mL)
C[C@@H](O)[C@H](NS(=O)(=O)c1ccc(C#CC#Cc2ccc(N)cc2)cc1)C(=O)NO [CPD-039, (2S,3R)-2-({4′-[4′-(4′-aminophenyl)buta-1′,3′-diyn-1′-yl]benzene}sulfonamido)-N,3-dihydroxybutanamide] | – | – | – | – | B (key: A: <1 μg/mL; B: 1-10 μg/mL; C: 11-50 μg/mL; D: 51-100 μg/mL; E: >100 μg/mL) | E (>100 μg/mL) | D (51-100 μg/mL) | D (51-100 μg/mL) | – | –
Nc1ccc(C#CC#Cc2ccc(C(=O)N[C@@H]3CCN(O)C3=O)cc2)cc1 [CPD-044, (R)-4-((4-aminophenyl)buta-1,3-diynyl)-N-(1-hydroxy-2-oxopyrrolidin-3-yl)benzamide] | < 1 | 51 to 100 (≈ 142 to 278 µM) | 51 to 100 (≈ 142 to 278 µM) | 51 to 100 (≈ 142 to 278 µM) | – | – | – | – | – | –
C[C@@H](O)[C@H](NC(=O)c1ccc(C#Cc2ccc(CN3CCOCC3)cc2)cc1)C(=O)NO [drawing 320] | < 1 | > 100 | – | < 1 | – | – | – | – | < 1 | –
CC(N)C(C(=O)NO)c1c[nH]c2cc(C#CC#Cc3ccc(N)cc3)ccc12 (centres unmarked) [CPD-042, 3-amino-2-{6′-[4′-(4′-aminophenyl)buta-1′,3′-diyn-1′-yl]-1′H-indol-3′-yl}-N-hydroxybutanamide] | 1 to 10 (≈ 2.69 to 26.9 µM) | 51 to 100 (≈ 137 to 269 µM) | 51 to 100 (≈ 137 to 269 µM) | 51 to 100 (≈ 137 to 269 µM) | – | – | – | – | – | –
C[C@H](O)[C@@H](NC(=O)c1ccc(C#CC#Cc2ccc(N)cc2)cc1)C(=O)NO [CPD-055, (2R,3S)-2-{4′-[(4″-aminophenyl)buta-1′,3′-diynyl]benzamido}-1,3-dihydroxybutanamide] | 1 to 10 (≈ 2.65 to 26.5 µM) | 51 to 100 (≈ 135 to 265 µM) | 11 to 50 (≈ 29.1 to 132 µM) | 11 to 50 (≈ 29.1 to 132 µM) | – | – | – | – | – | –
CCCc1cc(C2=N[C@@H](C(=O)NO)CO2)cc(OC)c1OC | – | > 100 | – | > 100 | – | – | – | – | – | –
Nc1ccc(OCC#Cc2ccc(C(=O)N[C@@H]3CCN(O)C3=O)cc2)cc1 [CPD-060, (R)-4-(3-(4-aminophenoxy)prop-1-ynyl)-N-(1-hydroxy-2-oxopyrrolidin-3-yl)benzamide] | 1 to 10 (≈ 2.74 to 27.4 µM) | 51 to 100 (≈ 140 to 274 µM) | 11 to 50 (≈ 30.1 to 137 µM) | 11 to 50 (≈ 30.1 to 137 µM) | – | – | – | – | – | –
C[C@@H](O)[C@@H](NC(=O)c1ccc(C#CC#Cc2ccc(N)cc2)cc1)C(=O)NO [CPD-054, (2R,3R)-2-{4′-[(4″-aminophenyl)buta-1′,3′-diynyl]benzamido}-1,3-dihydroxybutanamide] | 1 to 10 (≈ 2.65 to 26.5 µM) | 51 to 100 (≈ 135 to 265 µM) | 11 to 50 (≈ 29.1 to 132 µM) | 11 to 50 (≈ 29.1 to 132 µM) | – | – | – | – | – | –
C[C@@](O)(C(F)F)[C@H](NC(=O)c1ccc(C#Cc2ccc(CN3CCOCC3)cc2)cc1)C(=O)NO [CPD-069, N-((2S,3S)-4,4-difluoro-3-hydroxy-1-(hydroxyamino)-3-methyl-1-oxobutan-2-yl)-4-((4-(morpholinomethyl)phenyl)ethynyl)benzamide] | < 1 | – | 1 to 10 (≈ 2.05 to 20.5 µM) | – | – | – | – | – | – | –
C[C@@H](O)[C@H](NC(=O)c1ccc(C#CC#Cc2ccc(N)cc2)cn1)C(=O)NO [CPD-041, (2S,3R)-2-({5-[4-(4-aminophenyl)buta-1,3-diyn-1-yl]pyridin-2-yl}formamido)-N,3-dihydroxybutanamide] | < 1 | 11 to 50 (≈ 29.1 to 132 µM) | 1 to 10 (≈ 2.64 to 26.4 µM) | 1 to 10 (≈ 2.64 to 26.4 µM) | – | – | – | – | – | –
Nc1ccc(C#CC#Cc2ccc(C(=O)N[C@@H](Cc3ccccc3)C(=O)NO)cc2)cc1 [CPD-025, (2S)-2-({4′-[4′-(4′-aminophenyl)buta-1′,3′-diyn-1′-yl]phenyl}formamido)-N-hydroxy-3-phenylpropanamide] | – | – | – | – | B (key: A: <1 μg/mL; B: 1-10 μg/mL; C: 11-50 μg/mL; D: 51-100 μg/mL; E: >100 μg/mL) | E (>100 μg/mL) | D (51-100 μg/mL) | E (>100 μg/mL) | – | –
Nc1ccc(C#CC#Cc2ccc(C(=O)N[C@@H](CC(=O)O)C(=O)NO)cc2)cc1 [CPD-019, (3S)-3-({4′-[4′-(4′-aminophenyl)buta-1′,3′-diyn-1′-yl]phenyl}formamido)-3-(hydroxycarbamoyl)propane acid] | – | – | – | – | D (key: A: <1 μg/mL; B: 1-10 μg/mL; C: 11-50 μg/mL; D: 51-100 μg/mL; E: >100 μg/mL) | E (>100 μg/mL) | E (>100 μg/mL) | E (>100 μg/mL) | – | –
Nc1ccc(C#CC#Cc2ccc(C(=O)N[C@@H]3CN(O)C3=O)cc2)cc1 [CPD-071, (R)-4-((4-aminophenyl)buta-1,3-diynyl)-N-(1-hydroxy-2-oxoazetidin-3-yl)benzamide] | 1 to 10 (≈ 2.9 to 29 µM) | – | 51 to 100 (≈ 148 to 290 µM) | – | – | – | – | – | – | –
C[C@](O)(c1c[nH]nn1)C(NC(=O)c1ccc(C#CC#Cc2ccc(N)cc2)cc1)C(=O)NO (stereo partly drawn) [CPD-072, 4-((4-aminophenyl)buta-1,3-diynyl)-N-((3R)-3-hydroxy-1-(hydroxyamino)-1-oxo-3-(1H-1,2,3-triazol-4-yl)butan-2-yl)benzamide] | < 1 | – | < 1 | – | – | – | – | – | – | –
C[C@@](N)(C(F)F)C(NC(=O)c1ccc(C#CC#Cc2ccc(N)cc2)cc1)C(=O)NO (stereo partly drawn) [CPD-079, N-((3S)-3-amino-4,4-difluoro-1-(hydroxyamino)-3-methyl-1-oxobutan-2-yl)-4-((4-aminophenyl)buta-1,3-diynyl)benzamide] | < 1 | – | < 1 | – | – | – | – | – | – | –
